{
  "source": "patent US20040033517A1",
  "about": "“Compositions and methods relating to endothelial cell signaling using the protease activated receptor (PAR1)” (priority 2002, published 2004)",
  "origin": "cited, not measured here",
  "conditions": "systemically and locally induced sepsis models; Zisman 1997, Bone-Larson 2000; cited from earlier work",
  "data": [
    {"substance": "MCP-1: monocyte chemoattractant protein-1, chemokine administered in cited sepsis models", "values": [
      {"measurement": "Effect of administration in sepsis models", "result": "protective"}
    ]}
  ]
}
